Assay results from US11590131B2, “Compositions and methods for treating galactosemia” (Applied Therapeutics, Inc., priority 2017, dated 2023).
Entries after “also recorded” stand apart in the source; their conditions may differ.

Legend:
Type in all cases: in vivo, rat
GALT-null rats [1] = experiment: Qualitative visual scoring of cataracts (0-3 scale) in GALT null rats
From the text: Rats, with impaired GALT activity due to genetic modification (GALT null), were used as a model of galactosemia. This rat model mirrors human classic galactosemia in some important ways. The rats develop physical characteristics including cataracts follow exposure to galactose, growth abnormalities, and neurological/cognitive abnormalities, which mirror abnormalities in human patients and can be quantified. The rats also have biochemical characteristics that mirror human disease including elevated levels of galactose and galactose metabolites, including galactitol and Gal1), in blood and tissues. Rats were generated from heterozygote crosses (heterozygous M3 GALT null strain representing classic galactosemia). […] Aldose reductase inhibitor (Compound A or Compound B), suspended in Gerber formula, was administered orally at about 12-hour intervals (BID) at 1 mg inhibitor/gram pup weight (=1000 mg/kg) for each dose. Before use, drug was stored at −20° C. in a bottle or tubes wrapped in aluminum foil. Just before each feeding an aliquot of drug was re-suspended in formula, mixed well, and pipetted into individual tubes to be fed to the pups (volume calculated per pup weight measured that morning). All placebo and drug tubes of formula were warmed to 37° C. immediately before feeding. Placebo and drug were fed to pups by hand using a syringe and tubing. Pups receiving drug also were fed a small additional volume of Gerber formula that had been used to wash the tube and syringe immediately after the drug feeding. To motivate eating, pups were removed from their mother (to prevent nursing) and maintained in nests in a humidified incubator for about 2 hours at 35-37° C. prior to each feeding. […] In the first part of the study, cataracts were scored visually by a blinded rater on a 3 point scale, with zero being no cataracts present (absent), 1 being mild, 2 being moderate and 3 being severe cataracts present. In the second part of the study, eyes were dissected after euthanization, photographed via digital camera, and cataracts were quantified via software

GALT-null rats [2] = experiment: Digital photographic quantification of cataracts in GALT null rats
From the text: Rats, with impaired GALT activity due to genetic modification (GALT null), were used as a model of galactosemia. This rat model mirrors human classic galactosemia in some important ways. The rats develop physical characteristics including cataracts follow exposure to galactose, growth abnormalities, and neurological/cognitive abnormalities, which mirror abnormalities in human patients and can be quantified. The rats also have biochemical characteristics that mirror human disease including elevated levels of galactose and galactose metabolites, including galactitol and Gal1), in blood and tissues. Rats were generated from heterozygote crosses (heterozygous M3 GALT null strain representing classic galactosemia). […] Just before each feeding an aliquot of drug was re-suspended in formula, mixed well, and pipetted into individual tubes to be fed to the pups (volume calculated per pup weight measured that morning). […] In the first part of the study, cataracts were scored visually by a blinded rater on a 3 point scale, with zero being no cataracts present (absent), 1 being mild, 2 being moderate and 3 being severe cataracts present. In the second part of the study, eyes were dissected after euthanization, photographed via digital camera, and cataracts were quantified via software

GALT-null rats [3] = experiment: Metabolite levels (galactitol, galactose, Gal1P) by HPLC in liver, brain and plasma of GALT null rats
From the text: Rats, with impaired GALT activity due to genetic modification (GALT null), were used as a model of galactosemia. This rat model mirrors human classic galactosemia in some important ways. The rats develop physical characteristics including cataracts follow exposure to galactose, growth abnormalities, and neurological/cognitive abnormalities, which mirror abnormalities in human patients and can be quantified. The rats also have biochemical characteristics that mirror human disease including elevated levels of galactose and galactose metabolites, including galactitol and Gal1), in blood and tissues. Rats were generated from heterozygote crosses (heterozygous M3 GALT null strain representing classic galactosemia). […] Aldose reductase inhibitor (Compound A or Compound B), suspended in Gerber formula, was administered orally at about 12-hour intervals (BID) at 1 mg inhibitor/gram pup weight (=1000 mg/kg) for each dose. Before use, drug was stored at −20° C. in a bottle or tubes wrapped in aluminum foil. Just before each feeding an aliquot of drug was re-suspended in formula, mixed well, and pipetted into individual tubes to be fed to the pups (volume calculated per pup weight measured that morning). All placebo and drug tubes of formula were warmed to 37° C. immediately before feeding. Placebo and drug were fed to pups by hand using a syringe and tubing. Pups receiving drug also were fed a small additional volume of Gerber formula that had been used to wash the tube and syringe immediately after the drug feeding. To motivate eating, pups were removed from their mother (to prevent nursing) and maintained in nests in a humidified incubator for about 2 hours at 35-37° C. prior to each feeding. Separate syringes were used for placebo and drug. Pups were wrapped in fleece during feeding, which lasted about 2-5 minutes each. Lysates for metabolite analysis were prepared as follows: 50-100 mg pieces of previously frozen liver or brain were homogenized by grinding for 30 seconds using a Teflon micropestle and handheld micropestle motor (Kimble Chase Life Science and Research Products LLC) in 125 μl ice-cold HPLC-grade water. Metabolites were separated and quantified by HPLC (See, e.g., Daenzer, et al. Dis. Model Mech. 2016, 9(11):1375-1382)). Galactitol, inositol, and glucose were quantified using the same HPLC conditions described to quantify galactose by (Daenzer, 2016). Metabolite levels were normalized to the total area of peaks detected by the relevant column and elution run for that sample, minus the peaks that most distinguished homozygous M3/M3 samples from controls. Specifically, metabolites separated on the MA1 column (galactitol, inositol, galactose and glucose) were normalized to total peak area minus galactose and galactitol, and metabolites separated on the PA10 column (galactose-1P) were normalized to total peak area minus galactose and galactose-1P.

SMILES | qualitative assessment of cataracts (scale of 0-3) (GALT-null rats [1]; day nine of life, versus placebo, FIG. 2A) | cataracts (qualitative initial study and digitally quantified follow-on study) (GALT-null rats [2]; GALT null rats, 1,000 mg/kg BID or 250 mg/kg BID in follow-on study) | reduction of brain galactitol levels compared to placebo (GALT-null rats [3]; day 9) | reduction of liver galactitol levels compared to placebo (GALT-null rats [3]; day 9) | reduction of brain galactitol levels compared to placebo (GALT-null rats [3]; day 15-18) | reduction of liver galactitol levels compared to placebo (GALT-null rats [3]; day 15-18) | qualitative assessment of cataracts (0-3 scale) (GALT-null rats [1]; day 10 of life, FIG. 2C) | qualitative assessment of cataracts (0-3 scale) (GALT-null rats [1]; day 22 of life, placebo average severity 1.5, FIG. 2D) | digital quantitative analysis of cataracts (score) (GALT-null rats [2]; GALT null rats, day 22 of life, FIG. 2B) | galactitol levels in liver, brain and plasma (GALT-null rats [3]; day 10 of life, FIG. 3A) | galactose levels (GALT-null rats [3]; day 10 of life, FIG. 3B) | Gal1P levels (GALT-null rats [3]; day 10 of life, FIG. 3C)
O=C(O)Cc1nn(Cc2nc3cc(C(F)(F)F)ccc3s2)c(=O)c2nccnc12 [Compound A] | no cataracts | reduced cataracts | 40% | 87% | 57% | 57% |  |  |  |  |  | 
O=C(O)Cc1nn(Cc2cc3cc(C(F)(F)F)ccc3s2)c(=O)c2cscc12 [Compound B] |  |  |  |  |  |  | had cataracts | did not have cataracts; also recorded: cataracts were not present | the same score as wild type rats | normal or near normal levels | did not further increase | did not further increase
